The subject of assay [1] is 103Y-Gal4/+;UAS-CTG(480)/+ flies. Kind of assay: Lethality phenotype in pupae caused by expression of 480 CTG under 103Y-Gal4 (females born). It counts as in vivo, Drosophila. Details: key to Treated born/Control born: —: - indicates that no females were born, in neither the control tubes and the treated tubes. As to conditions: 80 μM; females born vs DMSO control; * p-value <0.05. The procedure: The 120 vials that make up the chemical library were individually assayed on the lethality phenotype in pupae caused by the expression of 480 CTG under the control of 103Y-Gal4 at a concentration of 80 μM. […] Thus, for positions O1, O2, O3, O4, O5 and O6 of the hexapeptide, a total of six, three, six, four, two and seven active amino acids were obtained, respectively (FIG. 2A). In order to perform the deconvolution, 10 of these 28 amino acids were selected, on the basis of their degree of activity in the biological assay (FIG. 2A). Finally, of the possible combinations, 16 sequences were selected to perform the synthesis of the defined hexapeptides (FIG. 2B). The selection of these 16 peptides was based on redundancy criteria between the physical and chemical properties of active amino acids in similar positions.
At 250 μM, the activity of the peptide decreased, possibly due to a toxic effect of the peptide at higher concentrations.
In order to determine the contribution of each of the p10 residues to their activity on CTG(480), an alanine scanning experiment was performed. These experiments are based on substituting every amino acid of the peptide with alanine and keeping the rest. Alanine is a small amino acid and, in general, not very active; this is why it is used for this type of studies. Since each alanine substitution examines the contribution of an individual amino acid, this experiment makes it possible, on the one hand, to evaluate whether p10 is susceptible to optimisation (in the event that a substitution increases the efficacy of the molecule), or to determine which amino acids are important for its function (in the event that a substitution decreases the activity thereof). The sequence of p10 allows for 5 substitutions; for this reason, 5 new hexapeptides were synthesised which were assayed in relation to the lethality phenotype in 103Y-Gal4; UAS-CTG(480)/+ flies and commercial food.

Assay [2] has as its system 2-AP-(CUG)23 RNA. Put plainly: 2-aminopurine fluorescence assay (hairpin opening). It counts as biochemical. As to conditions: 100 μM. As for the experimental part: Measurements of the fluorescence emitted (Y-axis), measured as relative fluorescence units (RFU), by 2-aminopurine in a (CUG)23 RNA (1 μM) in the presence of MblZF (0.1 μM, 1 μM, 2 μM and 5 μM) (A) or p10 (0.1 μM, 1 μM, 2 μM, 5 μM and 100 μM) (B), relative to the fluorescence emitted by the free RNA. p10 caused a 2.9-increase in the fluorescence of 2-AP at 100 μM, which indicates a change towards single-stranded. This effect was not observed when incubating the RNA with DMSO, or with the alanine scanning peptides with sequences: ppyawa and payawe (C).
In order to confirm whether said changes cause a loss of the hairpin loop structure, an experiment was performed using an RNA composed of 23 CUG repeats, wherein a guanine had been substituted with its analogue 2-aminopurine (2-AP-(CUG)23). When 2-AP is in a single-stranded environment, it emits fluorescence at 375 nm. […] However, upon increasing the concentration of p10 to 100 μM (RNA:peptide 1:100), the 2AP-(CUG)23 RNA underwent a conformational change, from double-stranded to single-stranded, with a 2.9-fold increase in the fluorescence emission of the molecule (FIG. 28B). In order to confirm the specificity of this effect, the same experiment was performed, incubating the alanine scanning peptides (payawe and ppyawa) with the 2-AP-(CUG)23 RNA at the same concentration as p10 (100 μM).
As may be observed in FIG. 29, in this example we use the 2-aminopurine assay in order to assay 4 peptides (p11, p5, p12 and p15) in addition to p10, obtained from the deconvolution of the combinatorial peptide library explained in this invention. […] The concentration used in all cases is 100 μM.

Assay [3] concerns GMR-Gal4 UAS-CTG(480) flies. Kind of assay: Endogenous expression of p10-derived peptides (Gal4/UAS), rough eye phenotype. The format is in vivo, Drosophila. An excerpt:
Thus, three different transgenes were designed, with SEQ ID NO: 17-19 (p17-p19), which encoded different peptides, all based on sequence SEQ ID NO: 10 corresponding to p10 (FIG. 9), taking into consideration the codon usage bias in Drosophila (i.e. favouring the use of G, and in particular C, in the synonymous sites; Powell & Moriyama, 1997) and adding an initial Methionine, as well as three spacer Glycines, to sequence SEQ ID NO: 10. Moreover, upstream from the […] initiation codon, 21 nucleotides of the 5′UTR end of the act5C gene of Drosophila which included the Kozak sequence were added, in order to enhance the expression of the transgenes.
p17 contained the direct sequence of the peptide of SEQ ID NO: 10. As discussed above, the peptides in the hexapeptide chemical library are composed of D-amino acids. The D-forms (dextrogyre) of amino acids are stereoisomers of the L-forms (levogyres) and only L-amino acids are synthesised in the cells and incorporated into proteins. Consequently, if the arrangement of the lateral chains of p10 is important for the function thereof, the latter would be lost when p17 is synthesised by Drosophila from L-aa. For this reason, it was decided to generate construct p18, wherein the peptide sequence of SEQ ID NO: 10 was inverted, leading to a retro-inverse peptide (Chorev & Goodman, 1995; P. M. Fischer, 2003). At the time when these transgenes were generated, the smallest constructs described in the literature encoded peptides with more than 20 amino acids, which is more than twice the size of peptides p17 and p18 (which have only ten amino acids). For this reason, construct p19 was generated, which combined the constructs of peptides p17 and p18, leading to a peptide with 19 amino acids. The three constructs were microinjected in the precursors of the germinal line of Drosophila embryos, leading to 10 lines of transgenic flies for each transgene.
The transgenic flies obtained were crossed with the GMR-Gal4 UAS-CTG(480)/CyO and Mhc-Gal4 UAS-CTG(480)/TM6b recombinant fly lines generated during this invention, which directed the expression of the CTG repeats in the eye and the muscle, respectively. As in the case of the sev-Gal4 UAS-CTG(480)/+ flies, the adult GMR-Gal4 UAS-CTG(480)/UAS-GFP flies presented a strong rough eye phenotype. […] However, the opposite phenomenon occurred at 25° C. and at 29° C. […] Given that changes in temperature affect the expression of the CTG(480) transgenes and peptides p17-p19 in a different manner, since the latter are inserted in different regions of the genome, there may be a relation between the quantity of peptide and of repeats that must be reached, whereafter p10 becomes toxic.

Data on 9 substances can be found in US20130143825A1, “COMPOUNDS FOR USE IN THE TREATMENT OF DISEASES BASED ON THE EXPRESSION OF TOXIC TRANSCRIPTS” (UNIVERSITAT DE VALENCIA, priority 2010, published 2013).

Non-standard residues stand in square brackets, D forms with d. No end group written: not given here.

For “p12: defined hexapeptide obtained following deconvolution of the D-amino acid combinatorial library ([dP][dP][dY][dT][dW][dE])”, in assay [1], the “Treated born/Control born” value came out at 3.0. In assay [2], the “destructuration of CUG23 probe, comparative 2-aminopurine assay” value is “significant levels of specificity and efficacy”.
Take “p17: endogenously expressed ten amino acid peptide: initial Methionine, three spacer Glycines and the direct sequence of p10 (MGGGPPYAWE)”: the “rough eye phenotype on co-expression with CTG(480)” value in assay [3] (19° C. and 21° C.) is “not”. For the same substance, in assay [3] (in vivo), the “transgenic lines assayed that modified the phenotype of GMR-Gal4 UAS-CTG(480) flies” value is listed as “none of the five lines”.
Turning to “p2: defined hexapeptide obtained following deconvolution of the D-amino acid combinatorial library ([dC][dP][dY][dA][dW][dE])”, in assay [1], the “Treated born/Control born” value is reported as “—”.
For “p1: defined hexapeptide obtained following deconvolution of the D-amino acid combinatorial library ([dC][dP][dY][dA][dQ][dE])”, the “Treated born/Control born” value in assay [1] came to 0.3.
On the same count and under the same terms, with “p3: defined hexapeptide obtained following deconvolution of the D-amino acid combinatorial library ([dC][dP][dY][dT][dQ][dE])” the figure was 0.8; with “p7: defined hexapeptide obtained following deconvolution of the D-amino acid combinatorial library ([dC][dQ][dY][dT][dQ][dE])”, 1.4; with “p13: defined hexapeptide obtained following deconvolution of the D-amino acid combinatorial library ([dP][dQ][dY][dA][dQ][dE])”, 0.8.
Consider “p11: defined hexapeptide obtained following deconvolution of the D-amino acid combinatorial library ([dP][dP][dY][dT][dQ][dE])”, for which the “Treated born/Control born” value in assay [1] amounted to 0.8. In addition, the “destructuration of CUG23 probe, comparative 2-aminopurine assay” value in assay [2] is “significant levels of specificity and efficacy”.
For “p9: defined hexapeptide obtained following deconvolution of the D-amino acid combinatorial library ([dP][dP][dY][dA][dQ][dE])”, the “Treated born/Control born” value in assay [1] turned out to be 2.0.
